This note sets out measurements from ChEMBL document CHEMBL1131656, “Diimidazo[1,2-c:4',5'-e]pyrimidines: N6-N1 conformationally restricted adenosines” (Bioorg Med Chem Lett, 1998).

In one experiment the target is Adenosine receptor A2a (Rattus norvegicus, UniProt P30543). As to the kind of experiment: Binding affinity against Adenosine A2a receptor from rat striata.
The target of the next experiment is T1, Adenosine receptor A1 (Rattus norvegicus, UniProt P25099).
T1 sequence (P25099 whole entry): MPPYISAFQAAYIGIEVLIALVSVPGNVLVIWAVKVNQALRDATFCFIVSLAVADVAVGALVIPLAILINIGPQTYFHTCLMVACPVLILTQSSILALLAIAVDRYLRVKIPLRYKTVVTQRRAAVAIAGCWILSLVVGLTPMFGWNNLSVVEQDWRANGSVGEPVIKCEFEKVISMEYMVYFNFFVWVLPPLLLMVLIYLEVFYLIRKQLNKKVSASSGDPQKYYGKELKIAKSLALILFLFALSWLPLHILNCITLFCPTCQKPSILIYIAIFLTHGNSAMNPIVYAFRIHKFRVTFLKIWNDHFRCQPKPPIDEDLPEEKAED
The experiment in a line: Binding affinity for rat brain Adenosine A1 receptor.

Experiment [1] has as its target Adenosine receptors; A1 & A2a (Rattus norvegicus) (UniProt P25099+P30543). As to the kind of experiment: Ratio of Ki for A2A and A1 receptors. The class given is protein assay.
Experiment [2] deals with Adenosine receptor A2a (Rattus norvegicus) (UniProt P30543). As to the kind of experiment: Binding affinity against Adenosine A2a receptor from rat striata at a concentration of 10e-3 uM.
Adenosine receptor A2a (Rattus norvegicus), sequence (P30543 whole entry): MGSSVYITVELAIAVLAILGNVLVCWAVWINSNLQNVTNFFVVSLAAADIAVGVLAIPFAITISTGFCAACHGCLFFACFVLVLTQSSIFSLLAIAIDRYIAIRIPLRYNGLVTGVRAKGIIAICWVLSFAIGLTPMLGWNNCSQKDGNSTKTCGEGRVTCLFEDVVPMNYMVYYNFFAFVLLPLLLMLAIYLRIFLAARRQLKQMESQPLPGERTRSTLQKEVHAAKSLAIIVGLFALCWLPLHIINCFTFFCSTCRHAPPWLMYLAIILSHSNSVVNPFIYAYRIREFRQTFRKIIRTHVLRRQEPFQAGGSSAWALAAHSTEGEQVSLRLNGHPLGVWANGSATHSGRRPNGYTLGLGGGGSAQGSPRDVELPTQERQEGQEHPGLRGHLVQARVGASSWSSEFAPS

Adenosine receptors; A1 & A2a (Rattus norvegicus), sequence (P30543 whole entry, looked up, one chain of several): as the sequence (P30543 whole entry) above
Adenosine receptor A2a, sequence (P30543 whole entry): as above

As usually defined, the Ki is the equilibrium dissociation constant of an inhibitor or competing ligand from its target. For the compound `OC[C@@H]1OC(n2cnc3c2N=CN2C[C@@H](c4ccccc4)N=C32)[C@@H](O)[C@H]1O` (some centres undefined), the Ki on Adenosine receptor A2a came out at 17.5 µM; at Adenosine receptor A1, 3.82 µM. In addition, the Ratio in experiment [1] was found to be 4.6.

Turning to `OC[C@@H]1OC(n2cnc3c2N=CN2C[C@@H](Cc4ccccc4)N=C32)[C@@H](O)[C@H]1O` (some centres undefined), the values for the Ki on Adenosine receptor A2a and on Adenosine receptor A1 were 13.5 µM and 2.23 µM, respectively. Moreover, in experiment [1], the Ratio amounted to 6.

In the case of `CCCOC1=Nc2c(cnn2-c2ccccc2)C2=N[C@@H](Cc3ccccc3)CN12`, on Adenosine receptor A2a, the Ki was 3.3 µM. Further, the Ratio in experiment [1] was determined as 0.35.

For the compound `OC[C@@H]1OC(n2cnc3c2N=CN2C[C@H](c4ccccc4)N=C32)[C@@H](O)[C@H]1O` (some centres undefined), the Ki is 189 µM at Adenosine receptor A2a and 4.54 µM at Adenosine receptor A1. Besides, in experiment [1], the Ratio turned out to be 42.

For the compound `CCCOC1=Nc2c(cnn2-c2ccccc2)C2=N[C@H](C)[C@@H](c3ccccc3)N12`, the affinity on Adenosine receptor A2a corresponds to a Ki of 11 µM. Moreover, the Ratio in experiment [1] turned out to be 1.5.

As usually defined, the inhibition is the percentage by which the read-out fell short of the control. `C[C@@H]1N=C2c3ncn(C4O[C@@H](CO)[C@H](O)[C@@H]4O)c3N=CN2[C@H]1c1ccccc1` (some centres undefined) displayed an inhibition in experiment [2] of 45%. At Adenosine receptor A1, this compound returned a Ki of 11.2 µM. Also, in experiment [1], the Ratio was 70.

As for `CCCOC1=Nc2c(ncn2-c2ccccc2)C2=N[C@H](Cc3ccccc3)CN12`, the Ki on Adenosine receptor A2a is 72 µM. The Ratio in experiment [1] was found to be 22.

Take `OC[C@@H]1OC(n2cnc3c2N=CN2C[C@H](Cc4ccccc4)N=C32)[C@@H](O)[C@H]1O` (some centres undefined): the Ki on Adenosine receptor A2a amounted to 57.1 µM; at Adenosine receptor A1 it was 2.99 µM. The Ratio in experiment [1] turned out to be 19.

For `C[C@H]1N=C2c3ncn(C4O[C@@H](CO)[C@H](O)[C@@H]4O)c3N=CN2[C@@H]1c1ccccc1` (some centres undefined), the results for the Ki at Adenosine receptor A2a and at Adenosine receptor A1 were 55.5 µM and 12.6 µM, respectively. For the same compound, in experiment [1], the Ratio worked out at 4.4.

With `CCCOC1=Nc2c(ncn2-c2ccccc2)C2=N[C@@H](Cc3ccccc3)CN12`, the Ratio in experiment [1] amounted to 0.18.

Regarding `CCCOC1=Nc2c(cnn2-c2ccccc2)C2=N[C@@H](C)[C@H](c3ccccc3)N12`, the affinity on Adenosine receptor A2a corresponds to a Ki of 45 µM. In experiment [1], the Ratio worked out at 1.4.

As for `CCCOC1=Nc2c(cnn2-c2ccccc2)C2=N[C@H](Cc3ccccc3)CN12`, on Adenosine receptor A2a, the Ki was above 100 µM. Also, the Ratio in experiment [1] was above 100.
